{"source": "paper PMC5218480", "about": "(PLoS ONE, 2017)", "system": "MV-4-11 cells", "assay": "Gene expression microarray analysis (Affymetrix PrimeView) and GSEA", "type": "cell-based, human", "parameters": "RFU PODN (11730768_x_at) / Fold change /veh PODN (11730768_x_at) / RFU LINC00158 (11744669_a_at) / Fold change /veh LINC00158 (11744669_a_at) / RFU DUSP10 (11751237_a_at) / Fold change /veh DUSP10 (11751237_a_at) / RFU ID3 (11757404_x_at) / Fold change /veh ID3 (11757404_x_at) / RFU PLEKHG5 (11737974_s_at) / Fold change /veh PLEKHG5 (11737974_s_at) / RFU LRRC4B (11730491_at) / Fold change /veh LRRC4B (11730491_at) / RFU GIMAP4 (11747438_a_at) / Fold change /veh GIMAP4 (11747438_a_at) / RFU KRT8 (11758183_x_at) / Fold change /veh KRT8 (11758183_x_at) / RFU CNN1 (11734310_a_at) / Fold change /veh CNN1 (11734310_a_at) / RFU VPS37D (11726825_at) / Fold change /veh VPS37D (11726825_at) / RFU C10orf10 (11716522_x_at) / Fold change /veh C10orf10 (11716522_x_at) / RFU KIR2DL2 /// KIR2DL4 /// KIR2DL5A /// KIR2DL5B /// KIR2DS1 /// KIR2DS2 /// KIR2DS3 /// KIR2DS4 /// KIR3DL3 /// KIR3DL3 /// KIR3DS1 (11738374_at) / Fold change /veh KIR2DL2 /// KIR2DL4 /// KIR2DL5A /// KIR2DL5B /// KIR2DS1 /// KIR2DS2 /// KIR2DS3 /// KIR2DS4 /// KIR3DL3 /// KIR3DL3 /// KIR3DS1 (11738374_at) / RFU C1QL1 (11718748_at) / Fold change /veh C1QL1 (11718748_at) / RFU TMPRSS4 (11747572_a_at) / Fold change /veh TMPRSS4 (11747572_a_at) / RFU HAMP (11756126_x_at) / Fold change /veh HAMP (11756126_x_at) / RFU RNFT2 (11725882_a_at) / Fold change /veh RNFT2 (11725882_a_at) / RFU NR4A2 (11747474_a_at) / Fold change /veh NR4A2 (11747474_a_at) / RFU ABCC12 (11746883_a_at) / Fold change /veh ABCC12 (11746883_a_at) / RFU TMEM136 (11760407_x_at) / Fold change /veh TMEM136 (11760407_x_at) / RFU CLDN22 /// WWC2 (11732394_at) / Fold change /veh CLDN22 /// WWC2 (11732394_at) / RFU HLA-DPB1 (11760878_x_at) / Fold change /veh HLA-DPB1 (11760878_x_at) / RFU SPINT1 (11716480_a_at) / Fold change /veh SPINT1 (11716480_a_at) / RFU GAP43 (11754022_s_at) / Fold change /veh GAP43 (11754022_s_at) / RFU A4GNT (11735810_at) / Fold change /veh A4GNT (11735810_at) / RFU PRB3 (11715151_x_at) / Fold change /veh PRB3 (11715151_x_at) / RFU TUBB4B (11761932_at) / Fold change /veh TUBB4B (11761932_at) / RFU CAPN14 (11732068_a_at) / Fold change /veh CAPN14 (11732068_a_at) / RFU TMCC2 (11721928_a_at) / Fold change /veh TMCC2 (11721928_a_at) / RFU IRGQ (11745062_a_at) / Fold change /veh IRGQ (11745062_a_at) / RFU FAM174B (11720279_a_at) / Fold change /veh FAM174B (11720279_a_at) / RFU TMPRSS4 (11748680_a_at) / Fold change /veh TMPRSS4 (11748680_a_at) / RFU FAM212B (11763350_a_at) / Fold change /veh FAM212B (11763350_a_at) / RFU PLEKHG5 (11743358_a_at) / Fold change /veh PLEKHG5 (11743358_a_at) / RFU ZSCAN30 (11745921_a_at) / Fold change /veh ZSCAN30 (11745921_a_at) / RFU CMKLR1 (11741424_a_at) / Fold change /veh CMKLR1 (11741424_a_at) / RFU LOC101060620 /// MAPK8IP1 (11723275_at) / Fold change /veh LOC101060620 /// MAPK8IP1 (11723275_at) / RFU SPTSSB (11747773_x_at) / Fold change /veh SPTSSB (11747773_x_at) / RFU PRSS12 (11739890_at) / Fold change /veh PRSS12 (11739890_at) / RFU BIN1 (11741810_x_at) / Fold change /veh BIN1 (11741810_x_at) / RFU WNT11 (11732464_a_at) / Fold change /veh WNT11 (11732464_a_at) / RFU C10orf10 (11716521_a_at) / Fold change /veh C10orf10 (11716521_a_at) / RFU C5orf56 (11738089_at) / Fold change /veh C5orf56 (11738089_at) / RFU CYB561 (11721691_x_at) / Fold change /veh CYB561 (11721691_x_at) / RFU ANKRD19P (11752326_a_at) / Fold change /veh ANKRD19P (11752326_a_at) / RFU OR2T12 /// OR2T33 /// OR2T8 (11738714_s_at) / Fold change /veh OR2T12 /// OR2T33 /// OR2T8 (11738714_s_at) / RFU VCAN (11748164_a_at) / Fold change /veh VCAN (11748164_a_at) / RFU JSRP1 (11732532_at) / Fold change /veh JSRP1 (11732532_at) / RFU KRTAP10-11 (11738290_x_at) / Fold change /veh KRTAP10-11 (11738290_x_at) / RFU MYO3A (11730013_a_at) / Fold change /veh MYO3A (11730013_a_at) / RFU EBF3 (11725865_a_at) / Fold change /veh EBF3 (11725865_a_at) / RFU CAMK2N1 (11719241_x_at) / Fold change /veh CAMK2N1 (11719241_x_at) / RFU C5orf56 (11738088_a_at) / Fold change /veh C5orf56 (11738088_a_at) / RFU OLFML3 (11715873_a_at) / Fold change /veh OLFML3 (11715873_a_at) / RFU LOC100653217 /// NTM (11731650_a_at) / Fold change /veh LOC100653217 /// NTM (11731650_a_at) / RFU MAPK11 (11762145_a_at) / Fold change /veh MAPK11 (11762145_a_at) / RFU FIZ1 (11724087_x_at) / Fold change /veh FIZ1 (11724087_x_at) / RFU OASL (11726364_x_at) / Fold change /veh OASL (11726364_x_at) / RFU SOX15 (11748057_x_at) / Fold change /veh SOX15 (11748057_x_at) / RFU CD79A (11719716_a_at) / Fold change /veh CD79A (11719716_a_at) / RFU HIST1H1D (11736915_at) / Fold change /veh HIST1H1D (11736915_at) / RFU CASKIN2 (11723855_a_at) / Fold change /veh CASKIN2 (11723855_a_at) / RFU LOC730098 (11760151_x_at) / Fold change /veh LOC730098 (11760151_x_at) / RFU OR4N2 (11742367_at) / Fold change /veh OR4N2 (11742367_at) / RFU PRRT2 (11749266_a_at) / Fold change /veh PRRT2 (11749266_a_at) / RFU SNX32 (11753110_a_at) / Fold change /veh SNX32 (11753110_a_at) / RFU CDHR5 (11726645_a_at) / Fold change /veh CDHR5 (11726645_a_at) / RFU RCAN1 (11760418_a_at) / Fold change /veh RCAN1 (11760418_a_at) / RFU FAM167A (11723789_a_at) / Fold change /veh FAM167A (11723789_a_at) / RFU FAM26E (11764081_at) / Fold change /veh FAM26E (11764081_at) / RFU ISYNA1 (11749810_s_at) / Fold change /veh ISYNA1 (11749810_s_at) / RFU ACY1 (11761880_at) / Fold change /veh ACY1 (11761880_at) / RFU 11764098_at / Fold change /veh 11764098_at / RFU SAMD14 (11745864_x_at) / Fold change /veh SAMD14 (11745864_x_at) / RFU NPB (11741838_a_at) / Fold change /veh NPB (11741838_a_at) / RFU TMPRSS6 (11731388_a_at) / Fold change /veh TMPRSS6 (11731388_a_at) / RFU KRTAP10-2 (11738614_at) / Fold change /veh KRTAP10-2 (11738614_at) / RFU ARHGAP8 /// PRR5-ARHGAP8 (11727945_x_at) / Fold change /veh ARHGAP8 /// PRR5-ARHGAP8 (11727945_x_at) / RFU KRTAP5-7 /// NADSYN1 (11734609_at) / Fold change /veh KRTAP5-7 /// NADSYN1 (11734609_at) / RFU RASL12 (11751679_a_at) / Fold change /veh RASL12 (11751679_a_at) / RFU CDKN2B (11736163_a_at) / Fold change /veh CDKN2B (11736163_a_at) / RFU PRF1 (11729649_at) / Fold change /veh PRF1 (11729649_at) / RFU, ZNF638 /// ZNF638-IT1 / Fold change vs veh, ZNF638 /// ZNF638-IT1 / RFU, PANK3 / Fold change vs veh, PANK3 / RFU, SH3YL1 / Fold change vs veh, SH3YL1 / RFU, ZEB2 / Fold change vs veh, ZEB2 / RFU, NRIP1 / Fold change vs veh, NRIP1 / RFU, PTTG1IP / Fold change vs veh, PTTG1IP / RFU, CAPN2 / Fold change vs veh, CAPN2 / RFU, MED14 / Fold change vs veh, MED14 / RFU, SNORA58 / Fold change vs veh, SNORA58 / RFU, C1orf63 / Fold change vs veh, C1orf63 / RFU, LRRFIP1 / Fold change vs veh, LRRFIP1 / RFU, NDUFAF7 / Fold change vs veh, NDUFAF7 / RFU, SLC12A2 / Fold change vs veh, SLC12A2 / RFU, IBTK / Fold change vs veh, IBTK / RFU, ESF1 / Fold change vs veh, ESF1 / Fold change vs veh, TMEM50B / RFU, TAOK1 / Fold change vs veh, TAOK1 / RFU, ACBD3 / Fold change vs veh, ACBD3 / RFU, TMA16 / Fold change vs veh, TMA16 / RFU, RWDD3 / Fold change vs veh, RWDD3 / RFU, BCAT1 / Fold change vs veh, BCAT1 / RFU, EDEM3 / Fold change vs veh, EDEM3 / RFU, TMEM33 / Fold change vs veh, TMEM33 / RFU, WDR75 / Fold change vs veh, WDR75 / RFU, AHCTF1 / Fold change vs veh, AHCTF1 / RFU, TFRC / Fold change vs veh, TFRC / RFU, ZDHHC17 / Fold change vs veh, ZDHHC17 / RFU, NOM1 / Fold change vs veh, NOM1 / RFU, ARL8B / Fold change vs veh, ARL8B / RFU, ZBTB11 / Fold change vs veh, ZBTB11 / RFU, TAMM41 / Fold change vs veh, TAMM41 / RFU, KIAA1704 /// LOC100996395 / Fold change vs veh, KIAA1704 /// LOC100996395 / RFU, ING1 / Fold change vs veh, ING1 / RFU, TRMT61B / Fold change vs veh, TRMT61B / RFU, FUBP3 / Fold change vs veh, FUBP3 / RFU, TP53 / Fold change vs veh, TP53 / RFU, TNKS2 / Fold change vs veh, TNKS2 / RFU, ZFP14 / Fold change vs veh, ZFP14 / RFU, ACTR2 / Fold change vs veh, ACTR2 / RFU, PPP3R1 / Fold change vs veh, PPP3R1 / RFU, PIK3R1 / Fold change vs veh, PIK3R1 / RFU, HNRNPA1 / Fold change vs veh, HNRNPA1 / RFU, RNF170 / Fold change vs veh, RNF170 / RFU, ZNF28 / Fold change vs veh, ZNF28 / RFU, RNGTT / Fold change vs veh, RNGTT / RFU, OGT / Fold change vs veh, OGT / RFU, BRD1 / Fold change vs veh, BRD1 / RFU, MARS / Fold change vs veh, MARS / RFU, ZNF655 / Fold change vs veh, ZNF655 / RFU, FAHD1 / Fold change vs veh, FAHD1 / RFU, BDP1 / Fold change vs veh, BDP1 / RFU, LRRCC1 / Fold change vs veh, LRRCC1 / RFU, ARID1A / Fold change vs veh, ARID1A / RFU, ZNF146 / Fold change vs veh, ZNF146 / RFU, ZNF330 / Fold change vs veh, ZNF330 / RFU, GPN3 / Fold change vs veh, GPN3 / RFU, C9orf123 / Fold change vs veh, C9orf123 / RFU, N4BP2L2 / Fold change vs veh, N4BP2L2 / RFU, ARFIP1 / Fold change vs veh, ARFIP1 / RFU, FAM179B / Fold change vs veh, FAM179B / RFU, BCL10 / Fold change vs veh, BCL10 / RFU, UHRF1BP1L / Fold change vs veh, UHRF1BP1L / RFU, BET1 / Fold change vs veh, BET1 / RFU, CNOT2 / Fold change vs veh, CNOT2 / RFU, ZNF268 / Fold change vs veh, ZNF268 / Fold change vs veh, ZNF507 / RFU, DGCR2 / Fold change vs veh, DGCR2 / RFU, WDSUB1 / Fold change vs veh, WDSUB1 / Fold change vs veh, HSP90B1 /// MIR3652 / RFU, ADSS / Fold change vs veh, ADSS / RFU, GK / Fold change vs veh, GK / RFU, ZNF148 / Fold change vs veh, ZNF148 / RFU, TAF9 / Fold change vs veh, TAF9 / RFU, SLC1A5 / Fold change vs veh, SLC1A5 / RFU, SLMO2 / Fold change vs veh, SLMO2 / RFU, ABCC4 / Fold change vs veh, ABCC4 / RFU, LOC101060439 /// RAP1B / Fold change vs veh, LOC101060439 /// RAP1B / RFU, RFX7 / Fold change vs veh, RFX7 / RFU, GTPBP10 / Fold change vs veh, GTPBP10 / RFU, CNEP1R1 / Fold change vs veh, CNEP1R1 / RFU, BIVM-ERCC5 /// ERCC5 / Fold change vs veh, BIVM-ERCC5 /// ERCC5 / RFU, ILF3 / Fold change vs veh, ILF3 / RFU 11762660_at / Fold change /veh 11762660_at / RFU VCAN (11757783_s_at) / Fold change /veh VCAN (11757783_s_at) / RFU DDX43 (11728927_at) / Fold change /veh DDX43 (11728927_at) / RFU KRT8 (11758188_x_at) / Fold change /veh KRT8 (11758188_x_at) / RFU NKD1 (11759106_at) / Fold change /veh NKD1 (11759106_at) / RFU SRD5A1 (11742802_a_at) / Fold change /veh SRD5A1 (11742802_a_at) / RFU TPSAB1 /// TPSB2 (11721975_s_at) / Fold change /veh TPSAB1 /// TPSB2 (11721975_s_at) / RFU GSTM3 (11746129_a_at) / Fold change /veh GSTM3 (11746129_a_at) / RFU IL23R (11737362_x_at) / Fold change /veh IL23R (11737362_x_at) / RFU TMEM51 (11727254_a_at) / Fold change /veh TMEM51 (11727254_a_at) / RFU PIWIL2 (11732686_x_at) / Fold change /veh PIWIL2 (11732686_x_at) / RFU ORM1 (11744905_x_at) / Fold change /veh ORM1 (11744905_x_at) / RFU CCDC152 (11743942_at) / Fold change /veh CCDC152 (11743942_at) / RFU ECM1 (11717891_a_at) / Fold change /veh ECM1 (11717891_a_at) / RFU IL23R (11748794_a_at) / Fold change /veh IL23R (11748794_a_at) / RFU TNFAIP8L3 (11732012_x_at) / Fold change /veh TNFAIP8L3 (11732012_x_at) / RFU MBOAT4 (11741988_at) / Fold change /veh MBOAT4 (11741988_at) / RFU 11764193_at / Fold change /veh 11764193_at / RFU TMEM53 (11763286_at) / Fold change /veh TMEM53 (11763286_at) / RFU MAGEB2 (11727129_at) / Fold change /veh MAGEB2 (11727129_at) / RFU TMEM200A (11744735_a_at) / Fold change /veh TMEM200A (11744735_a_at) / RFU CCDC152 (11751479_a_at) / Fold change /veh CCDC152 (11751479_a_at) / RFU FAM211A (11726209_a_at) / Fold change /veh FAM211A (11726209_a_at) / RFU RGS16 (11746705_a_at) / Fold change /veh RGS16 (11746705_a_at) / RFU VCAN (11755009_s_at) / Fold change /veh VCAN (11755009_s_at) / RFU RHOB (11743442_s_at) / Fold change /veh RHOB (11743442_s_at) / RFU RGS16 (11720943_a_at) / Fold change /veh RGS16 (11720943_a_at) / RFU RGS16 (11720944_at) / Fold change /veh RGS16 (11720944_at) / RFU, VPS4B / Fold change vs veh, VPS4B / RFU, CREB1 / Fold change vs veh, CREB1 / RFU, DNAJC13 / Fold change vs veh, DNAJC13 / RFU, GNAQ / Fold change vs veh, GNAQ / RFU, CDK5R1 / Fold change vs veh, CDK5R1 / RFU, ZRANB3 / Fold change vs veh, ZRANB3 / RFU, CUL4A / Fold change vs veh, CUL4A / RFU, CCNY / Fold change vs veh, CCNY / RFU, UFL1 / Fold change vs veh, UFL1 / RFU, COG3 / Fold change vs veh, COG3 / RFU, DIAPH2 / Fold change vs veh, DIAPH2 / RFU, SKA2 / Fold change vs veh, SKA2 / RFU, AFF3 / Fold change vs veh, AFF3 / RFU, LMF1 / Fold change vs veh, LMF1 / RFU, IPO11 / Fold change vs veh, IPO11 / RFU, DFFB / Fold change vs veh, DFFB / RFU, FOXP1 / Fold change vs veh, FOXP1 / RFU, CARD8 / Fold change vs veh, CARD8 / RFU, STRN3 / Fold change vs veh, STRN3 / RFU, ADK / Fold change vs veh, ADK / RFU, RASSF2 / Fold change vs veh, RASSF2 / RFU, WIPF1 / Fold change vs veh, WIPF1 / RFU, LARP1B / Fold change vs veh, LARP1B / RFU, RASA1 / Fold change vs veh, RASA1 / RFU, RB1 / Fold change vs veh, RB1 / RFU, PPFIA1 / Fold change vs veh, PPFIA1 / RFU, MAT2A / Fold change vs veh, MAT2A / RFU, CCT5 / Fold change vs veh, CCT5 / RFU, WDR92 / Fold change vs veh, WDR92 / RFU, CUX1 / Fold change vs veh, CUX1 / RFU, TTC7A / Fold change vs veh, TTC7A / RFU, TMEM135 / Fold change vs veh, TMEM135 / RFU, DEPTOR / Fold change vs veh, DEPTOR / RFU, CPM / Fold change vs veh, CPM / RFU, DNAJB6 / Fold change vs veh, DNAJB6 / RFU, CACNA2D3 / Fold change vs veh, CACNA2D3 / RFU, DTX4 / Fold change vs veh, DTX4 / RFU, TFCP2 / Fold change vs veh, TFCP2 / RFU, GMCL1 /// GMCL1P1 / Fold change vs veh, GMCL1 /// GMCL1P1 / RFU, AEBP2 / Fold change vs veh, AEBP2 / RFU, SNHG1 /// SNORD22 /// SNORD25 /// SNORD26 /// SNORD27 /// SNORD28 /// SNORD29 /// SNORD31 / Fold change vs veh, SNHG1 /// SNORD22 /// SNORD25 /// SNORD26 /// SNORD27 /// SNORD28 /// SNORD29 /// SNORD31 / Fold change (Aza/veh), C12orf56 (ProbeSet 11735607_a_at) / Fold change (ACY-1035/veh), C12orf56 (ProbeSet 11735607_a_at) / Fold change (Aza/veh), FGFR1OP (ProbeSet 11751329_s_at) / Fold change (ACY-1035/veh), FGFR1OP (ProbeSet 11751329_s_at) / Fold change (Aza/veh), VPS36 (ProbeSet 11739960_a_at) / Fold change (ACY-1035/veh), VPS36 (ProbeSet 11739960_a_at) / RFU SYPL1 (11715823_x_at) / Fold change /veh SYPL1 (11715823_x_at) / RFU IGFBP7 (11715501_s_at) / Fold change /veh IGFBP7 (11715501_s_at) / RFU REEP3 (11722064_at) / Fold change /veh REEP3 (11722064_at) / RFU IGLL1 (11728026_x_at) / Fold change /veh IGLL1 (11728026_x_at): dose or concentration left out as unconfirmed", "conditions": "MV-4-11 cells, 48 hours", "data": [{"smiles": "Nc1ccc(-c2cccs2)cc1NC(=O)c1ccc2c(c1)cc(C1CC1)n2CCN1CCOCC1", "note": "[ACY-1035]", "values": [{"measurement": "Fold change /veh ARHGAP8 /// PRR5-ARHGAP8 (11727945_x_at)", "result": 1.04}]}]}
